Source: patent US8835134B2, “Cycloastragenol monoglucoside, preparation, pharmaceutical composition and application thereof” (Tianjin Institute of Pharmaceutical Research, priority 2007, dated 2014)

Test system: anesthetized open-chest dogs
Assay: Hemodynamics of anesthetized open-chest dogs, intravenous infusion
Format: in vivo, mongrel dogs
Conditions: 0.6 mg/kg iv
Experimental: The animals were anesthetized by intravenous injection of 30 mg/kg sodium pentobarbital, tracheally intubated, and mechanically ventilated with positive air pressure. Left thoracotomy was performed through the fourth intercostal space and the heart was suspended in a pericardial cradle, the aortic root was isolated and a probe of blood flow meter (12 or 14 mm in diameter) was fixed to measure the aortic blood flow as a representation of cardiac output (CO), the circumflex branch of left coronary artery was isolated and a probe of blood flow meter (2 or 2.5 mm in diameter) was fixed to measure the coronary blood flow (CBF). A polyethylene catheter filled with heparin physiological saline was inserted through cardiac apex into the left ventricle to measure the left ventricular pressure (LVP) and left ventricular end-diastolic pressure (LVEDP), Peak positive and peak negative first derivatives of the LVP (+ LVdp/dt and − LVdp/dt) were calculated with the Acknowledge software. The systolic blood pressure (SBP), diastolic blood pressure (DBP) and mean arterial pressure (MAP) were measured by polyethylene catheter via the femoral artery, ECG □ was measured by a AC-601G ECG amplifier. The above-mentioned analog signal was input into a data acquisition workstation (MP100, BIOPAC Systems, USA) to a computer running Acknowledge (version 3.7.1).
After surgery, various indexes before administration were recorded until the indexes were stable, and then intravenous infusion administration was conducted. Thirty dogs were divided into five groups (six dogs in each group), the experiment groups were given 0.15, 0.3, 0.6 mg/kg of ASP-[…] respectively, the normal control group was given 1 ml/kg of solvent, and the positive control group was given 0.3 mg/kg of astragaloside IV. The delivery volumes were 15 ml for each dog was and the delivery velocity was 1 ml/min. The indexes were recorded at 5, 10, 15, 20, 30, 45, 60, 90 and 120 mins after drug administration. At the end of experiment, the hearts were excised and weighted. The myocardial blood flow for per hectogram (CF), coronary resistance (CR), cardiac index (CI), left ventricular work (LVW) and total peripheral resistance (TPR) were calculated according to the following formulae: CF=CBF×[…]/heart weight CR=MAP/CF CI=CO/0.11×(body weight)^2/3 LVW=CO×(MAP−5)×1.052×0.0136 TPR=MAP×79.92/CO
Data are expressed as mean±SD ( x±s), the paired t-test was used to compare the significance between before and after administration, the unpaired t-test was adopted for comparison between groups.

CC(C)(O)[C@@H]1CC[C@](C)([C@H]2[C@@H](O)C[C@@]3(C)C4C[C@H](OC5OC(CO)C(O)C(O)C5O)C5C(C)(C)[C@@H](O)CC[C@@]56C[C@@]46CC[C@]23C)O1 (stereo partly drawn) [CMG, Cycloastragenol-6-O-β-D-glucoside]
LVW change vs before administration (15 min after administration): (0.06 ± 0.13) kg · m
TPR (15 min after administration): 5249 ± 2234 dyn · s/cm^5
TPR change vs before administration (15 min after administration): (−258 ± 392) dyn · s/cm^5
dp/dt (15 min after administration): 1199 ± 288 mmHg/s
dp/dt change vs before administration (15 min after administration): (95 ± 56) mmHg/s
−dp/dt (15 min after administration): −851 ± 196 mmHg/s
−dp/dt change vs before administration (15 min after administration): (2 ± 98) mmHg/s
CF (20 min after administration): 49.8 ± 8.0 ml/min/100 g
CF change vs before administration (20 min after administration): (−1.4 ± 1.4) ml/min/100 g
CI (20 min after administration): 2.05 ± 0.41 L/min/m^2
CI change vs before administration (20 min after administration): (0.09 ± 0.18) L/min/m^2
CO (20 min after administration): 1.19 ± 0.34 L/min
CO change vs before administration (20 min after administration): (0.05 ± 0.10) L/min
CR (20 min after administration): 1.48 ± 0.36 mmHg/ml/min/100 g
CR change vs before administration (20 min after administration): (0.06 ± 0.10) mmHg/ml/min/100 g
LVEDP (20 min after administration): 1.2 ± 1.6 mmHg
LVEDP change vs before administration (20 min after administration): (−1.5 ± 0.54) mmHg
LVP (20 min after administration): 107 ± 17 mmHg
LVP change vs before administration (20 min after administration): (0.4 ± 3.9) mmHg
LVW (20 min after administration): 1.13 ± 0.35 kg · m
LVW change vs before administration (20 min after administration): (0.06 ± 0.17) kg · m
TPR (20 min after administration): 5176 ± 1818 dyn · s/cm^5
TPR change vs before administration (20 min after administration): (−331 ± 534) dyn · s/cm^5
dp/dt (20 min after administration): 1276 ± 339 mmHg/s
dp/dt change vs before administration (20 min after administration): (172 ± 151) mmHg/s
−dp/dt (20 min after administration): −842 ± 220 mmHg/s
−dp/dt change vs before administration (20 min after administration): (10 ± 91) mmHg/s
CF (30 min after administration): 50.7 ± 8.5 ml/min/100 g
CF change vs before administration (30 min after administration): (−0.5 ± 4.0) ml/min/100 g
CI (30 min after administration): 2.05 ± 0.57 L/min/m^2
CI change vs before administration (30 min after administration): (0.09 ± 0.12) L/min/m^2
CO (30 min after administration): 1.20 ± 0.43 L/min
CO change vs before administration (30 min after administration): (0.05 ± 0.07) L/min
CR (30 min after administration): 1.46 ± 0.38 mmHg/ml/min/100 g
CR change vs before administration (30 min after administration): (0.04 ± 0.08) mmHg/ml/min/100 g
LVEDP (30 min after administration): 1.3 ± 1.5 mmHg
LVEDP change vs before administration (30 min after administration): (−1.4 ± 0.6) mmHg
LVP (30 min after administration): 107 ± 17 mmHg
LVP change vs before administration (30 min after administration): (0.9 ± 5.6) mmHg
LVW (30 min after administration): 1.15 ± 0.45 kg · m
LVW change vs before administration (30 min after administration): (0.07 ± 0.13) kg · m
TPR (30 min after administration): 5406 ± 2485 dyn · s/cm^5
TPR change vs before administration (30 min after administration): (−101 ± 366) dyn · s/cm^5
dp/dt (30 min after administration): 1232 ± 274 mmHg/s
dp/dt change vs before administration (30 min after administration): (128 ± 108) mmHg/s
−dp/dt (30 min after administration): −833 ± 243 mmHg/s
−dp/dt change vs before administration (30 min after administration): (20 ± 96) mmHg/s
CF (45 min after administration): 50.4 ± 7.8 ml/min/100 g
CF change vs before administration (45 min after administration): (−0.8 ± 4.7) ml/min/100 g
CI (45 min after administration): 1.97 ± 0.30 L/min/m^2
CI change vs before administration (45 min after administration): (0.01 ± 0.26) L/min/m^2
CO (45 min after administration): 1.15 ± 0.27 L/min
CO change vs before administration (45 min after administration): (0.00 ± 0.15) L/min
CR (45 min after administration): 1.48 ± 0.35 mmHg/ml/min/100 g
CR change vs before administration (45 min after administration): (0.06 ± 0.16) mmHg/ml/min/100 g
LVEDP (45 min after administration): 1.3 ± 1.7 mmHg
LVEDP change vs before administration (45 min after administration): (−1.41 ± 0.81) mmHg
LVP (45 min after administration): 106 ± 16 mmHg
LVP change vs before administration (45 min after administration): (0.2 ± 5.2) mmHg
LVW (45 min after administration): 1.1 ± 0.29 kg · m
LVW change vs before administration (45 min after administration): (0.03 ± 0.23) kg · m
TPR (45 min after administration): 5337 ± 1723 dyn · s/cm^5
TPR change vs before administration (45 min after administration): (−170 ± 595) dyn · s/cm^5
dp/dt (45 min after administration): 1181 ± 320 mmHg/s
dp/dt change vs before administration (45 min after administration): (77 ± 53) mmHg/s
−dp/dt (45 min after administration): −842 ± 170 mmHg/s
−dp/dt change vs before administration (45 min after administration): (10 ± 126) mmHg/s
CF (60 min after administration): 50.2 ± 11.6 ml/min/100 g
CF change vs before administration (60 min after administration): (−1.0 ± 6.9) ml/min/100 g
CI (60 min after administration): 2.04 ± 0.36 L/min/m^2
CI change vs before administration (60 min after administration): (0.08 ± 0.24) L/min/m^2
CO (60 min after administration): 1.19 ± 0.32 L/min
CO change vs before administration (60 min after administration): (0.04 ± 0.13) L/min
